Results taken from the supplement of paper PMC6288085.
± gives the standard deviation of the averaged measurements.

Legend:
[1] = test system: Caenorhabditis elegans N2; test: food intake (delta OD600 day1-day4, bacterial clearance) (OD600 units); higher = more food eaten; settings: genotype: wt, 72 h
Caenorhabditis elegans = test: as above; settings: 72 h
Protocol: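 C. elegans N2 or ser-5(vq1) knockout adults in 96-well plates treated with olanzapine, quetiapine, ziprasidone or serotonin over a dose range. Food intake was measured as bacterial clearance, delta OD600 from day 1 to day 4 per well (14-21 replicate wells of 5-15 animals).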

Q: Which results are given for CN1CC2c3ccccc3Oc3ccc(Cl)cc3C2C1 (stereo not drawn) [Asenapine]?
A: food intake ([1]; 0.01 µM): 0.00861 ± 0.0014; food intake ([1]; 0.03 µM): 0.0107 ± 0.002; food intake ([1]; 0.1 µM): 0.0122 ± 0.0018; food intake ([1]; 0.3 µM): 0.0127 ± 0.0016; food intake ([1]; 1 µM): 0.0127 ± 0.0018; food intake ([1]; 3 µM): 0.0112 ± 0.0017

Q: Which food intake ([1]; 0.05 µM) does the source give for CN(C)CCCN1c2ccccc2Sc2ccc(Cl)cc21 [Chlorpromazine] here?
A: 0.0145 ± 0.0024

Q: What about the food intake ([1]; 0.1 µM) of the same compound?
A: 0.0149 ± 0.003

Q: And the food intake ([1]; 0.2 µM)?
A: 0.0171 ± 0.0044

Q: What about the food intake ([1]; 0.5 µM) of the same compound?
A: 0.0191 ± 0.0025

Q: What about the food intake ([1]; 0.75 µM) of the same compound?
A: 0.0204 ± 0.0038

Q: What about the food intake ([1]; 1 µM) of the same compound?
A: 0.0201 ± 0.0033

Q: What about the food intake ([1]; 2 µM) of the same compound?
A: 0.0233 ± 0.0053

Q: What about the food intake ([1]; 5 µM) of the same compound?
A: 0.0214 ± 0.0034

Q: CN(C)CC/C=C1/c2ccccc2Sc2ccc(Cl)cc21 [Chlorprothixene] was tested. Which food intake ([1]; 0.4 µM) did it give?
A: 0.0203 ± 0.0033

Q: And the food intake ([1]; 2 µM)?
A: 0.0255 ± 0.0055

Q: What about the food intake ([1]; 10 µM) of the same compound?
A: 0.0194 ± 0.0019

Q: Which food intake ([1]; 0.05 µM) does the source give for CN1CCN(C2=Nc3ccccc3Oc3ccc(Cl)cc32)CC1 [Loxapine] here?
A: 0.0139 ± 0.0032

Q: What about the food intake ([1]; 0.5 µM) of the same compound?
A: 0.0143 ± 0.003

Q: What about the food intake ([1]; 5 µM) of the same compound?
A: 0.0196 ± 0.0047

Q: And the food intake ([1]; 10 µM)?
A: 0.0212 ± 0.0027

Q: What about the food intake ([1]; 20 µM) of the same compound?
A: 0.0217 ± 0.002

Q: What about the food intake ([1]; 50 µM) of the same compound?
A: 0.0234 ± 0.0019

Q: What about the food intake ([1]; 100 µM) of the same compound?
A: 0.023 ± 0.0034

Q: What about the food intake ([1]; 200 µM) of the same compound?
A: 0.0195 ± 0.0029

Q: What does the source list for Cc1cc2c(s1)Nc1ccccc1N=C2N1CCN(C)CC1 [Olanzapine]?
A: food intake (Caenorhabditis elegans; 0.5 µM, genotype: ser-5(vq1)): 0.0069 ± 0.0017; food intake (Caenorhabditis elegans; 0.5 µM, genotype: wt): 0.00731 ± 0.0022; food intake (Caenorhabditis elegans; 5 µM, genotype: ser-5(vq1)): 0.00729 ± 0.0017; food intake (Caenorhabditis elegans; 5 µM, genotype: wt): 0.00919 ± 0.0018; food intake (Caenorhabditis elegans; 20 µM, genotype: ser-5(vq1)): 0.0081 ± 0.0016; food intake (Caenorhabditis elegans; 20 µM, genotype: wt): 0.0102 ± 0.0017; food intake (Caenorhabditis elegans; 50 µM, genotype: ser-5(vq1)): 0.00845 ± 0.0018; food intake (Caenorhabditis elegans; 50 µM, genotype: wt): 0.0117 ± 0.0018; food intake (Caenorhabditis elegans; 100 µM, genotype: ser-5(vq1)): 0.00859 ± 0.0022; food intake (Caenorhabditis elegans; 100 µM, genotype: wt): 0.0138 ± 0.0019; food intake (Caenorhabditis elegans; 200 µM, genotype: ser-5(vq1)): 0.00839 ± 0.0019; food intake (Caenorhabditis elegans; 200 µM, genotype: wt): 0.0148 ± 0.0024; food intake ([1]; 0.05 µM): 0.0155 ± 0.0028; food intake ([1]; 0.5 µM): 0.0153 ± 0.0013; food intake ([1]; 5 µM): 0.0152 ± 0.0038; food intake ([1]; 10 µM): 0.0159 ± 0.0025; food intake ([1]; 20 µM): 0.015 ± 0.0017; food intake ([1]; 50 µM): 0.0149 ± 0.0025; food intake ([1]; 100 µM): 0.0184 ± 0.0027; food intake ([1]; 200 µM): 0.0186 ± 0.0027

Q: With OCCOCCN1CCN(C2=Nc3ccccc3Sc3ccccc32)CC1 [Quetiapine] as the compound, how does the food intake (Caenorhabditis elegans; 0.1 µM, genotype: ser-5(vq1)) read?
A: 0.00593 ± 0.0015

Q: What about the food intake (Caenorhabditis elegans; 0.1 µM, genotype: wt) of the same compound?
A: 0.00754 ± 0.0018

Q: What about the food intake (Caenorhabditis elegans; 3 µM, genotype: ser-5(vq1)) of the same compound?
A: 0.00574 ± 0.0014

Q: And the food intake (Caenorhabditis elegans; 3 µM, genotype: wt)?
A: 0.00775 ± 0.0022

Q: What about the food intake (Caenorhabditis elegans; 10 µM, genotype: ser-5(vq1)) of the same compound?
A: 0.00662 ± 0.0017

Q: And the food intake (Caenorhabditis elegans; 10 µM, genotype: wt)?
A: 0.00993 ± 0.0021

Q: What about the food intake (Caenorhabditis elegans; 30 µM, genotype: ser-5(vq1)) of the same compound?
A: 0.00674 ± 0.0016

Q: What about the food intake (Caenorhabditis elegans; 30 µM, genotype: wt) of the same compound?
A: 0.0118 ± 0.0027

Q: And the food intake (Caenorhabditis elegans; 100 µM, genotype: ser-5(vq1))?
A: 0.00602 ± 0.0015

Q: What about the food intake (Caenorhabditis elegans; 100 µM, genotype: wt) of the same compound?
A: 0.0127 ± 0.0034

Q: And the food intake (Caenorhabditis elegans; 200 µM, genotype: ser-5(vq1))?
A: 0.0055 ± 0.0014

Q: What about the food intake (Caenorhabditis elegans; 200 µM, genotype: wt) of the same compound?
A: 0.0103 ± 0.0026

Q: What about the food intake ([1]; 0.1 µM) of the same compound?
A: 0.00598 ± 0.0014

Q: And the food intake ([1]; 3 µM)?
A: 0.00727 ± 0.0012

Q: And the food intake ([1]; 10 µM)?
A: 0.00847 ± 0.0015

Q: And the food intake ([1]; 30 µM)?
A: 0.0103 ± 0.0018

Q: And the food intake ([1]; 100 µM)?
A: 0.0115 ± 0.0024

Q: And the food intake ([1]; 200 µM)?
A: 0.0118 ± 0.0032

Q: With NCCc1c[nH]c2ccc(O)cc12 [Serotonin] as the compound, how does the food intake (Caenorhabditis elegans; 100 µM, genotype: ser-5(vq1)) read?
A: 0.00664 ± 0.0014

Q: And the food intake (Caenorhabditis elegans; 100 µM, genotype: wt)?
A: 0.00773 ± 0.0016

Q: What about the food intake (Caenorhabditis elegans; 500 µM, genotype: ser-5(vq1)) of the same compound?
A: 0.00869 ± 0.0018

Q: And the food intake (Caenorhabditis elegans; 500 µM, genotype: wt)?
A: 0.00951 ± 0.0034

Q: And the food intake (Caenorhabditis elegans; 1000 µM, genotype: ser-5(vq1))?
A: 0.0118 ± 0.0024

Q: What about the food intake (Caenorhabditis elegans; 1000 µM, genotype: wt) of the same compound?
A: 0.0142 ± 0.0025

Q: And the food intake (Caenorhabditis elegans; 2000 µM, genotype: ser-5(vq1))?
A: 0.0155 ± 0.0025

Q: What about the food intake (Caenorhabditis elegans; 2000 µM, genotype: wt) of the same compound?
A: 0.0176 ± 0.0028

Q: What about the food intake (Caenorhabditis elegans; 5000 µM, genotype: ser-5(vq1)) of the same compound?
A: 0.0182 ± 0.0025

Q: And the food intake (Caenorhabditis elegans; 5000 µM, genotype: wt)?
A: 0.0199 ± 0.0031

Q: And the food intake (Caenorhabditis elegans; 10000 µM, genotype: ser-5(vq1))?
A: 0.0182 ± 0.003

Q: And the food intake (Caenorhabditis elegans; 10000 µM, genotype: wt)?
A: 0.0189 ± 0.0036

Q: With O=C1Cc2cc(CCN3CCN(c4nsc5ccccc45)CC3)c(Cl)cc2N1 [Ziprasidone] as the compound, how does the food intake (Caenorhabditis elegans; 0.01 µM, genotype: ser-5(vq1)) read?
A: 0.00508 ± 0.0018

Q: What about the food intake (Caenorhabditis elegans; 0.01 µM, genotype: wt) of the same compound?
A: 0.00821 ± 0.0024

Q: What about the food intake (Caenorhabditis elegans; 0.03 µM, genotype: ser-5(vq1)) of the same compound?
A: 0.00569 ± 0.0015

Q: What about the food intake (Caenorhabditis elegans; 0.03 µM, genotype: wt) of the same compound?
A: 0.00974 ± 0.0022

Q: What about the food intake (Caenorhabditis elegans; 0.1 µM, genotype: ser-5(vq1)) of the same compound?
A: 0.00662 ± 0.0014

Q: And the food intake (Caenorhabditis elegans; 0.1 µM, genotype: wt)?
A: 0.0135 ± 0.0022

Q: What about the food intake (Caenorhabditis elegans; 0.3 µM, genotype: ser-5(vq1)) of the same compound?
A: 0.00664 ± 0.0016

Q: What about the food intake (Caenorhabditis elegans; 0.3 µM, genotype: wt) of the same compound?
A: 0.0153 ± 0.0027

Q: And the food intake (Caenorhabditis elegans; 1 µM, genotype: ser-5(vq1))?
A: 0.00712 ± 0.0025

Q: What about the food intake (Caenorhabditis elegans; 1 µM, genotype: wt) of the same compound?
A: 0.0145 ± 0.0029

Q: And the food intake (Caenorhabditis elegans; 3 µM, genotype: ser-5(vq1))?
A: 0.0061 ± 0.0015

Q: What about the food intake (Caenorhabditis elegans; 3 µM, genotype: wt) of the same compound?
A: 0.0145 ± 0.0032

Q: And the food intake ([1]; 0.01 µM)?
A: 0.00881 ± 0.0015

Q: What about the food intake ([1]; 0.03 µM) of the same compound?
A: 0.0107 ± 0.0022

Q: And the food intake ([1]; 0.1 µM)?
A: 0.0128 ± 0.0021

Q: What about the food intake ([1]; 0.3 µM) of the same compound?
A: 0.0136 ± 0.0016

Q: And the food intake ([1]; 1 µM)?
A: 0.0136 ± 0.0024

Q: What about the food intake ([1]; 3 µM) of the same compound?
A: 0.0138 ± 0.0019
